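Here, GI50 denotes the concentration required for 50% inhibition of growth. TGI: total growth inhibition.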
Tests used:
Test in all cases: NCI tumour cell line growth inhibition, 384-well format; in the data active = GI50 below about 0.43 µM; inactive = the rest
786-0 renal = tested on: 786-0 renal
A498 renal = tested on: A498 renal
A549 NSCLC = tested on: A549 NSCLC
ACHN renal = tested on: ACHN renal
BT-549 breast = tested on: BT-549 breast
CAKI-1 renal = tested on: CAKI-1 renal
CCRF-CEM leukemia = tested on: CCRF-CEM leukemia
COLO 205 colon = tested on: COLO 205 colon
DU-145 prostate = tested on: DU-145 prostate
EKVX NSCLC = tested on: EKVX NSCLC
HCC-2998 colon = tested on: HCC-2998 colon
HCT-116 colon = tested on: HCT-116 colon
HCT-15 colon = tested on: HCT-15 colon
HL-60(TB) leukemia = tested on: HL-60(TB) leukemia
HOP-62 NSCLC = tested on: HOP-62 NSCLC
HOP-92 NSCLC = tested on: HOP-92 NSCLC
HS 578T breast = tested on: HS 578T breast
HT29 colon = tested on: HT29 colon
IGROV1 ovarian = tested on: IGROV1 ovarian
K-562 leukemia = tested on: K-562 leukemia
KM12 colon = tested on: KM12 colon
LOX IMVI melanoma = tested on: LOX IMVI melanoma
M14 melanoma = tested on: M14 melanoma
MALME-3M melanoma = tested on: MALME-3M melanoma
MCF7 breast = tested on: MCF7 breast
MDA-MB-231 breast = tested on: MDA-MB-231 breast
MDA-MB-435 melanoma = tested on: MDA-MB-435 melanoma
MDA-MB-468 breast = tested on: MDA-MB-468 breast
MOLT-4 leukemia = tested on: MOLT-4 leukemia
NCI-H226 lung = tested on: NCI-H226 lung
NCI-H23 lung = tested on: NCI-H23 lung
NCI-H322M lung = tested on: NCI-H322M lung
NCI-H460 NSCLC = tested on: NCI-H460 NSCLC
NCI-H522 lung = tested on: NCI-H522 lung
NCI/ADR-RES ovarian = tested on: NCI/ADR-RES ovarian
OVCAR-3 ovarian = tested on: OVCAR-3 ovarian
OVCAR-4 ovarian = tested on: OVCAR-4 ovarian
OVCAR-5 ovarian = tested on: OVCAR-5 ovarian
OVCAR-8 ovarian = tested on: OVCAR-8 ovarian
PC-3 prostate = tested on: PC-3 prostate
RPMI-8226 leukemia = tested on: RPMI-8226 leukemia
RXF 393 renal = tested on: RXF 393 renal
SF-268 CNS = tested on: SF-268 CNS
SF-295 CNS = tested on: SF-295 CNS
SF-539 CNS = tested on: SF-539 CNS
SK-MEL-2 melanoma = tested on: SK-MEL-2 melanoma
SK-MEL-28 melanoma = tested on: SK-MEL-28 melanoma
SK-MEL-5 melanoma = tested on: SK-MEL-5 melanoma
SK-OV-3 ovarian = tested on: SK-OV-3 ovarian
SN12C renal = tested on: SN12C renal
SNB-19 CNS = tested on: SNB-19 CNS
SNB-75 CNS = tested on: SNB-75 CNS
SW-620 colon = tested on: SW-620 colon
T-47D breast = tested on: T-47D breast
TK-10 renal = tested on: TK-10 renal
U251 glioblastoma = tested on: U251 glioblastoma
UACC-257 melanoma = tested on: UACC-257 melanoma
UACC-62 melanoma = tested on: UACC-62 melanoma
UO-31 renal = tested on: UO-31 renal

CCn1nc(C2CCN(C(=O)CCO)CC2)nc1-c1cnc(N)c(-c2nnc(C(C)(C)C)o2)n1
30 µM: TGI (EKVX NSCLC)
30.9 µM: TGI (RPMI-8226 leukemia)
1810 nM: TGI (IGROV1 ovarian)
59.7 µM: TGI (MALME-3M melanoma)
38.6 µM: TGI (NCI-H522 lung)
832 nM: TGI (T-47D breast)
54.3 µM: TGI (BT-549 breast)
73.7 µM: TGI (NCI-H23 lung)
inactive: GI50 ([…]-0 renal) 7.59 µM | GI50 (A498 renal) 18.1 µM | GI50 (A549 NSCLC) 5.24 µM | GI50 (ACHN renal) 15.5 µM | GI50 (BT-549 breast) 6.24 µM | GI50 (CAKI-1 renal) 4.7 µM | GI50 (CCRF-CEM leukemia) 6.7 µM | GI50 (COLO 205 colon) 6.8 µM | GI50 (DU-145 prostate) 13.7 µM | GI50 (EKVX NSCLC) 3.08 µM | GI50 (HCC-2998 colon) 7.79 µM | GI50 (HCT-116 colon) 23.2 µM | GI50 (HCT-15 colon) 15.8 µM | GI50 (HOP-62 NSCLC) 42.7 µM | GI50 (HOP-92 NSCLC) 3.35 µM | GI50 (HS 578T breast) 6.89 µM | GI50 (HT29 colon) 3.02 µM | GI50 (K-562 leukemia) 17.3 µM | GI50 (KM12 colon) 13.3 µM | GI50 (LOX IMVI melanoma) 10.1 µM | GI50 (M14 melanoma) 16 µM | GI50 (MALME-3M melanoma) 7.64 µM | GI50 (MDA-MB-231 breast) 80.9 µM | GI50 (MDA-MB-435 melanoma) 11.3 µM | GI50 (MDA-MB-468 breast) 2800 nM | GI50 (MOLT-4 leukemia) 1110 nM | GI50 (NCI-H226 lung) 24.6 µM | GI50 (NCI-H23 lung) 16.7 µM | GI50 (NCI-H322M lung) 5 µM | GI50 (NCI-H460 NSCLC) 1190 nM | GI50 (NCI-H522 lung) 15.1 µM | GI50 (NCI/ADR-RES ovarian) 19.4 µM | GI50 (OVCAR-3 ovarian) 7 µM | GI50 (OVCAR-4 ovarian) 32.9 µM | GI50 (OVCAR-5 ovarian) 10.7 µM | GI50 (OVCAR-8 ovarian) 29.8 µM | GI50 (PC-3 prostate) 3.65 µM | GI50 (RPMI-8226 leukemia) 16.5 µM | GI50 (RXF 393 renal) 2420 nM | GI50 (SF-268 CNS) 24.4 µM | GI50 (SF-295 CNS) 993 nM | GI50 (SF-539 CNS) 16.6 µM | GI50 (SK-MEL-2 melanoma) 17.3 µM | GI50 (SK-MEL-28 melanoma) 5.59 µM | GI50 (SK-MEL-5 melanoma) 8.62 µM | GI50 (SK-OV-3 ovarian) 599 nM | GI50 (SN12C renal) 5.27 µM | GI50 (SNB-19 CNS) 35.2 µM | GI50 (SNB-75 CNS) 1130 nM | GI50 (SW-620 colon) 34.4 µM | GI50 (TK-10 renal) 2710 nM | GI50 (U251 glioblastoma) 41.7 µM | GI50 (UACC-257 melanoma) 22.2 µM | GI50 (UACC-62 melanoma) 6.81 µM | GI50 (UO-31 renal) 4.31 µM
> 100 µM: TGI (786-0 renal) | TGI (A498 renal) | TGI (A549 NSCLC) | TGI (ACHN renal) | TGI (CAKI-1 renal) | TGI (HCT-116 colon) | TGI (HCT-15 colon) | TGI (HOP-62 NSCLC) | TGI (HOP-92 NSCLC) | TGI (M14 melanoma) | TGI (MCF7 breast) | TGI (MDA-MB-231 breast) | TGI (MDA-MB-435 melanoma) | TGI (NCI-H226 lung) | TGI (NCI-H322M lung) | TGI (NCI-H460 NSCLC) | TGI (OVCAR-4 ovarian) | TGI (OVCAR-5 ovarian) | TGI (OVCAR-8 ovarian) | TGI (PC-3 prostate) | TGI (SF-268 CNS) | TGI (SF-295 CNS) | TGI (SF-539 CNS) | TGI (SK-MEL-2 melanoma) | TGI (SK-MEL-28 melanoma) | TGI (SN12C renal) | TGI (SNB-19 CNS) | TGI (SW-620 colon) | TGI (U251 glioblastoma) | TGI (UACC-257 melanoma) | TGI (UACC-62 melanoma)
23.4 µM: TGI (CCRF-CEM leukemia)
23.8 µM: TGI (LOX IMVI melanoma)
8.87 µM: TGI (MOLT-4 leukemia)
77.2 µM: TGI (UO-31 renal)
14.8 µM: TGI (SK-OV-3 ovarian)
15.7 µM: TGI (RXF 393 renal)
31.8 µM: TGI (HS 578T breast)
17.1 µM: TGI (MDA-MB-468 breast)
44.7 µM: TGI (K-562 leukemia)
84.1 µM: TGI (NCI/ADR-RES ovarian)
100 µM: TGI (DU-145 prostate)
36.9 µM: TGI (SK-MEL-5 melanoma)
active: GI50 (HL-60(TB) leukemia) 377 nM | GI50 (IGROV1 ovarian) 320 nM | GI50 (MCF7 breast) 200 nM | GI50 (T-47D breast) 170 nM
47 µM: TGI (HCC-2998 colon)
76.4 µM: TGI (TK-10 renal)
22.1 µM: TGI (OVCAR-3 ovarian)
25.5 µM: TGI (HT29 colon)
13.2 µM: TGI (SNB-75 CNS)
23.9 µM: TGI (COLO 205 colon)
12.2 µM: TGI (HL-60(TB) leukemia)
32.3 µM: TGI (KM12 colon)
